Test results published in US7485743B2, “Oligomeric ketone compounds” (BTG International Limited, priority 2004, dated 2009).

Columns and labels:
[1] = Experimental: Control animals received the appropriate vehicle (deionized water at 1 ml/kg) via the same route.
[2] = Ketogenic effect after oral administration: β-hydroxybutyrate concentrations in rat plasma; type: in vivo, rat (male Sprague-Dawley); conditions: 300 mg/kg po; for Maximum increase of plasma concentration of β-hydroxybutyrate: versus vehicle baseline
Experimental: Male Sprague-Dawley rats (weight range 200-250 g) were obtained from Charles River, Margate, Kent. The rats were group housed in polypropylene cages at a temperature of 21 ±4° C. and 55 ±20% humidity and on a standard light/dark cycle. Animals had free access to a standard pelleted rat diet and tap water at all times. Animals were accustomed to these conditions for at least one week before experimentation.
Animals were killed by CO2 and blood (approx, 5 ml) was collected by cardiac puncture at various times after dosing. Blood was collected into EDTA-coated plasma collection tubes (Sarstedt 5 ml K2E tubes) and kept on ice prior to centrifugation. Tubes were centrifuged in an Eppendorf 570R centrifuge at 4° C. for 5 minutes at 2500 rpm (1000 g). Following plasma separation, extreme care was taken to avoid contamination with red blood cells and samples were re-centrifuged as necessary. Plasma samples were initially frozen on dry ice and transferred to a −75° C. freezer until required for analysis.
Sodium DL-β-hydroxybutyrate (H-6501 Lot 111K2618) was obtained from Sigma. A stock solution of β-bydroxybutyrate (40 mM DL racemate equivalent to 20 mM D-isomer) was prepared in 0.9% saline solution, kept at 4° C. and used to generate appropriate dilutions for an assay standard curve.
Commercial clinical assay kits for the determination of D-β-hydroxybutyrate were obtained from Random Laboratories (Antrim, UK). Kits were obtained in two pack sizes (Ranbut RB1007: 10×10 ml and RB1008: 10×50 ml) but were otherwise identical. Each kit contained a standard solution of 1 mM D-β-hydroxybutyrate that was assayed every time to confirm the assay was performing correctly. The kit relies on measuring the appearance of NADH via the activity of β-hydroxybutyrate dehydrogenase measured as an increase of OD340 nm. An alkaline pH is necessary to drive the reaction equilibrium towards the production of NADH and acetoacetate.
The protocol supplied with the Ranbut kits was for a discrete (cuvette-based) spectrophotometric assay, so the protocol was modified for suitability with a 96-well microplate format using blank, flat-bottomed microplates (Greiner PS 655101 Lot 98 35 01). Assays were performed in triplicate using a sample volume of10 μl to each well for the standards and usually 20 μl for plasma samples (though this was varied for some experiments). Standard dilutions and samples were pipetted a single plate at a time and preincubated at 37° C. for 15 minutes in the sample compartment of a Molecular Devices VERSAMAX tunable microplate reader. The appropriate volume of assey reagent was reconstituted, according to instructions, using distilled water and preincubated at 37° C. for 15 minutes using a static water bath. The assay plate was ejected and the reaction started by adding rapidly 250 μl of reagent to each well (avoiding air bubbles). The plate was reloaded, mixed and then the change in OD340 nm followed in kinetic mode with a reading at every 15 seconds for a total of 2 minutes. The reaction rate was then determined from the OD increase over a suitable 1 minute period, after allowing a necessary period for the reaction rate to settle. The rate between 45 seconds and 105 seconds was used as the default measuring period, though occasionally a different period was used as necessary (e.g. if an aberrant reading was obtained at one of these time-points).
For analysis of spectrophotometric rate assays, linear regression analysis to the standard curve was used followed by interpolation of unknown values (GraphPad Prism 3.0) For comparison of treatment groups with vehicle, multiple 2-tailed T-tests were used and p<0.05 was taken to indicate statistical significance.

SMILES	Solubility in deionized water and nature of the solution ([1]; deionized water, dosing solution for gavage)	Solubility in water ([1]; isolated product (syrup))	Time at which the maximum increase of plasma β-hydroxybutyrate was observed [2] [min]	Time by which plasma β-hydroxybutyrate returned to control values [2] [h]	Maximum increase of plasma concentration of β-hydroxybutyrate [2] [mM]	Time until which plasma β-hydroxybutyrate plateaued at the maximum level [2] [min]	Level of plasma β-hydroxybutyrate at 1 h ([2]; 1 h after dosing)
CC(=O)CCOC(=O)C[C@@H](C)OC(=O)C[C@@H](C)OC(=O)C[C@@H](C)O [KTX 0204, 2-keto-butan-4-ol ester of (R)-3-hydroxybutyrate triolide]	mostly soluble in deionized water and produced a cloudy and stable solution	water-soluble	30	≤ 1	0.25	–	–
C[C@@H](O)CC(=O)[O-].[Na+] [KTX 0101, sodium (R)-3-hydroxybutyrate]	–	–	15	≤ 2	0.4	30	still significantly (P<0.05) elevated
